The test system of this test is P388 leukemia ip, CD2F1 mice, survival T/C. The experiment in a line: NCI In Vivo Anticancer Drug Screen. Data for tumor model P388 Leukemia (intraperitoneal) in CD2F1 (CDF1) mice. Particulars: endpoint: median survival time, higher = longer survival. Put shortly:
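Mice carrying the transplanted tumor received test compound or vehicle. Survival was recorded in each group, and the value is the treated-group measurement divided by that of the vehicle-treated control group.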

Setting [1] is: dose: 50.0 mg/kg/injection, schedule: Q01DX005 (ip), vehicle: Klucel (hydroxypropylcellulose) (HPC).
Setting [2] is: dose: 50.0 mg/kg/injection, schedule: Q01DX005 (ip), vehicle: saline with Tween-80.
Where [3] appears, read: dose: 100.0 mg/kg/injection, schedule: Q01DX005 (ip), vehicle: saline with Tween-80.
Setting [4] is: dose: 200.0 mg/kg/injection, schedule: Q01DX005 (ip), vehicle: saline with Tween-80.
Setting [5] is: dose: 12.5 mg/kg/injection, schedule: Q01DX009 (ip), vehicle: Klucel (hydroxypropylcellulose) (HPC).
Setting [6] is: dose: 25.0 mg/kg/injection, schedule: Q01DX009 (ip), vehicle: Klucel (hydroxypropylcellulose) (HPC).
The mark [7] stands for this setting: dose: 50.0 mg/kg/injection, schedule: Q01DX009 (ip), vehicle: Klucel (hydroxypropylcellulose) (HPC).
[8] abbreviates: dose: 100.0 mg/kg/injection, schedule: Q01DX009 (ip), vehicle: Klucel (hydroxypropylcellulose) (HPC).
The mark [9] stands for this setting: dose: 100.0 mg/kg/injection, schedule: Q04DX002 (ip), vehicle: saline.
Setting [10] is: dose: 200.0 mg/kg/injection, schedule: Q04DX002 (ip), vehicle: saline.
Where [11] appears, read: dose: 400.0 mg/kg/injection, schedule: Q04DX002 (ip), vehicle: saline.
The mark [12] stands for this setting: dose: 60.0 mg/kg/injection, schedule: Q01DX005 (ip), vehicle: Klucel (hydroxypropylcellulose) (HPC).
Where [13] appears, read: dose: 120.0 mg/kg/injection, schedule: Q01DX005 (ip), vehicle: Klucel (hydroxypropylcellulose) (HPC).
Setting [14] is: dose: 100.0 mg/kg/injection, schedule: Q04DX003 (ip), vehicle: saline with Tween-80.
The mark [15] stands for this setting: dose: 200.0 mg/kg/injection, schedule: Q04DX003 (ip), vehicle: saline with Tween-80.
Where [16] appears, read: dose: 400.0 mg/kg/injection, schedule: Q04DX003 (ip), vehicle: saline with Tween-80.

Molecules are shown by their SMILES. “And” between values parts separate entries of the source, which are not always exact repeats. Equal entries are not always repeated. Toxic doses and inconclusive results are not listed.

As to `COc1cc(C2c3cc4c(cc3[C@@H](OC3OC5CO[C@@H](c6cccs6)OC5C(O)C3O)[C@H]3COC(=O)C23)OCO4)cc(OC)c1OC` (stereo partly drawn), the T/C runs as follows: (dose: 2.0 mg/kg/injection, schedule: Q01DX005 (ip), vehicle: saline) 123 % of control; (dose: 8.0 mg/kg/injection, schedule: Q01DX005 (ip), vehicle: saline) 155 % of control; (dose: 16.0 mg/kg/injection, schedule: Q01DX005 (ip), vehicle: saline) 175 % of control and 185 % of control; (dose: 32.0 mg/kg/injection, schedule: Q01DX005 (ip), vehicle: saline) 203 % of control; (dose: 64.0 mg/kg/injection, schedule: Q01DX005 (ip), vehicle: saline) 225 % of control.
`CC(=O)OC1(c2ccccc2)CCN(C)CC1C(=O)c1ccccc1` (stereo not drawn): the T/C is 109 % of control (dose: 50.0 mg/kg/injection, schedule: Q01DX005 (ip), vehicle: saline) and 116 % of control (dose: 100.0 mg/kg/injection, schedule: Q01DX005 (ip), vehicle: saline).
On to `O=c1oc(-c2ccccc2)nc2c1sc1nc(-c3ccccc3)oc(=O)c12`, for which the T/C is 93 % of control (dose: 1.56 mg/kg/injection, schedule: Q01DX005 (ip), vehicle: Klucel (hydroxypropylcellulose) (HPC)); 101 % of control and 91 % of control and 96 % of control (dose: 3.12 mg/kg/injection, schedule: Q01DX005 (ip), vehicle: Klucel (hydroxypropylcellulose) (HPC)); 87 % of control and 88 % of control and 89 % of control (dose: 6.25 mg/kg/injection, schedule: Q01DX005 (ip), vehicle: Klucel (hydroxypropylcellulose) (HPC)); 88 % of control and 92 % of control under setting [1].
Regarding `CCOC(=O)C(Cc1ccccc1)NO` (stereo not drawn), the T/C was 98 % of control (dose: 6.25 mg/kg/injection, schedule: Q01DX009 (ip), vehicle: saline with Tween-80) and 100 % of control (dose: 12.5 mg/kg/injection, schedule: Q01DX009 (ip), vehicle: saline with Tween-80).
Regarding `CCCCCCCCCCCc1c(O)c(O)c(-c2ccccn2)c2nonc12`, the T/C by setting is: under setting [2], 106 % of control; under setting [3], 103 % of control; under setting [4], 98 % of control.
`COC(=O)c1nc(=S)[nH]c(C(=O)OC)c1C(=O)c1cccc(O)c1`: the T/C was 95 % of control (dose: 60.0 mg/kg/injection, schedule: Q01DX005 (ip), vehicle: suspension in saline) and 90 % of control (dose: 120.0 mg/kg/injection, schedule: Q01DX005 (ip), vehicle: suspension in saline).
As to `Clc1cccc2nn3ccnc3n12`, the T/C (dose: 50.0 mg/kg/injection, schedule: Q01DX001 (ip), vehicle: Klucel (hydroxypropylcellulose) (HPC)) is 105 % of control; the T/C (dose: 100.0 mg/kg/injection, schedule: Q01DX001 (ip), vehicle: Klucel (hydroxypropylcellulose) (HPC)) is 99 % of control; the T/C (dose: 200.0 mg/kg/injection, schedule: Q01DX001 (ip), vehicle: Klucel (hydroxypropylcellulose) (HPC)) is 102 % of control.
With `C=CCN(CC=C)c1cc(Cl)nnc1Cl`, the T/C runs as follows: (dose: 25.0 mg/kg/injection, schedule: Q01DX009 (ip), vehicle: other) 104 % of control; (dose: 50.0 mg/kg/injection, schedule: Q01DX009 (ip), vehicle: other) 102 % of control; (dose: 100.0 mg/kg/injection, schedule: Q01DX009 (ip), vehicle: other) 103 % of control; (dose: 200.0 mg/kg/injection, schedule: Q01DX009 (ip), vehicle: other) 109 % of control.
For `CCn1c(=O)c2[nH]c(Cl)nc2n(CC(C)Cl)c1=O` (stereo not drawn), the T/C under setting [5] is 94 % of control; the T/C under setting [6] is 101 % of control; the T/C under setting [7] is 100 % of control and 103 % of control; the T/C under setting [8] was 104 % of control.
Take `O=C1C(=Cc2cc(Cl)c(O)c(Cl)c2)C(=O)c2ccccc21`: the T/C reads like this: under setting [9], 97 % of control; under setting [10], 86 % of control; under setting [11], 88 % of control.
For `CCCCOc1cccc2c1C(=O)c1c(O)c3c(c(O)c1C2=O)C[C@@](O)(C(C)=O)C[C@@H]3OC1CC(N)C(O)C(C)O1` (stereo partly drawn), the T/C was 117 % of control and 120 % of control (dose: 3.13 mg/kg/injection, schedule: Q04DX003 (ip), vehicle: water); 113 % of control and 117 % of control (dose: 6.25 mg/kg/injection, schedule: Q04DX003 (ip), vehicle: water); 115 % of control (dose: 12.5 mg/kg/injection, schedule: Q04DX003 (ip), vehicle: water); 89 % of control and 90 % of control (dose: 50.0 mg/kg/injection, schedule: Q04DX003 (ip), vehicle: water).
Regarding `CCOC(=O)CSc1cc(O)c2ccccc2c1N=Nc1ccc(C(=O)OCC)cc1`, the T/C is 104 % of control under setting [2], 110 % of control under setting [3] and 114 % of control under setting [4].
As to `C=C[Si](C)(C)c1ccc([Si](C)(C)C=C)cc1`, the T/C is 107 % of control (dose: 6.25 mg/kg/injection, schedule: Q01DX009 (ip), vehicle: saline); 105 % of control (dose: 12.5 mg/kg/injection, schedule: Q01DX009 (ip), vehicle: saline); 117 % of control (dose: 25.0 mg/kg/injection, schedule: Q01DX009 (ip), vehicle: saline); 97 % of control (dose: 100.0 mg/kg/injection, schedule: Q01DX009 (ip), vehicle: saline); 99 % of control (dose: 200.0 mg/kg/injection, schedule: Q01DX009 (ip), vehicle: saline).
As for `CC12C(=O)OC(=O)C1CCc1c2ccc2ccccc12` (stereo not drawn), the T/C is, setting by setting: under setting [2], 107 % of control; under setting [3], 110 % of control; under setting [4], 107 % of control.
With `O/N=C(\CNC/C(=N\O)NO)NO`, the T/C was 90 % of control under setting [1]; 97 % of control (dose: 100.0 mg/kg/injection, schedule: Q01DX005 (ip), vehicle: Klucel (hydroxypropylcellulose) (HPC)); 93 % of control (dose: 200.0 mg/kg/injection, schedule: Q01DX005 (ip), vehicle: Klucel (hydroxypropylcellulose) (HPC)).
Regarding `CCn1c(=N)sc2nc3ccccc3n2c1=O`, the T/C was 103 % of control under setting [12] and 103 % of control under setting [13].
As to `CNC(=O)OCc1c(COC(=O)NC)c(-c2ccc(Cl)c(Cl)c2)n2c1CCC2`, the T/C is, setting by setting: under setting [5], 153 % of control; under setting [6], 160 % of control; under setting [7], 155 % of control; under setting [8], 188 % of control.
With `CS(=O)(=O)OCc1ccc(COS(C)(=O)=O)cc1`, for the setting “dose: 12.5 mg/kg/injection, schedule: Q04DX003 (ip), vehicle: Klucel (hydroxypropylcellulose) (HPC)”, the T/C was 123 % of control.
Regarding `COC(C(=O)O)(c1ccccc1)C(F)(F)F` (stereo not drawn), the T/C (dose: 60.0 mg/kg/injection, schedule: Q01DX005 (ip), vehicle: saline) was 100 % of control and the T/C (dose: 120.0 mg/kg/injection, schedule: Q01DX005 (ip), vehicle: saline) is 109 % of control.
For `CC1(C)C2=CCCC3(OCCO3)C2(C)CCC1O` (stereo not drawn), the T/C reads like this: under setting [14], 90 % of control; under setting [15], 90 % of control; under setting [16], 90 % of control.
`CC1=C2C=CCC[C@H](C)[C@H]2CC1`: the T/C is 95 % of control (dose: 3.5 mg/kg/injection, schedule: Q01DX005 (ip), vehicle: water); 95 % of control (dose: 7.0 mg/kg/injection, schedule: Q01DX005 (ip), vehicle: water); 92 % of control (dose: 14.0 mg/kg/injection, schedule: Q01DX005 (ip), vehicle: water); 94 % of control (dose: 28.0 mg/kg/injection, schedule: Q01DX005 (ip), vehicle: water).
For the compound `Nc1nc(-c2ccc([N+](=O)[O-])cc2)cc(-c2cc(-c3ccc([N+](=O)[O-])cc3)nc(N)n2)n1`, the T/C was 87 % of control under setting [12]; 89 % of control under setting [13]; 94 % of control (dose: 240.0 mg/kg/injection, schedule: Q01DX005 (ip), vehicle: Klucel (hydroxypropylcellulose) (HPC)).
With `CCSc1nc(C=O)c(Cc2ccc(Br)cc2)c(=O)[nH]1`, the T/C runs as follows: under setting [14], 110 % of control; under setting [15], 107 % of control; under setting [16], 88 % of control.
`Cc1nsnc1CCO`: the T/C is 102 % of control under setting [9], 104 % of control under setting [10] and 99 % of control under setting [11].
`CNC(=O)N(C)C(=O)c1ccncc1C(=O)N(C(=O)NC1CCCCC1)C1CCCCC1`: the T/C was 98 % of control under setting [2], 89 % of control under setting [3] and 89 % of control under setting [4].

The values are drawn from PubChem BioAssay AID330 (DTP/NCI, 2004).
